According to patent EP0394553A2, “Use of fluorine containing pyridone carboxylic acid derivatives for preparing a medicament for the treatment of HIV infections” (DAIICHI PHARMACEUTICAL CO., LTD., priority 1989, dated 1990):
Read-outs that look alike come from different tables or passages of the source.

Assays:
HIV (LAV 1) = experiment: microbe, parasite or virus in culture; settings: for Viable cell count / Viral antigen-positive cell percentage: 10 mcg/ml; for viability at 1 µg/mL / viability at 2.5 µg/mL / viability at 5 µg/mL / viability at 10 µg/mL: Human immunodeficiency virus 1, CCRF-CEM
Description: Human T cell-derived, T4 antigen-positive CEM cells (provided by the Institut Pasteur, France) were used as host cells of HIV. Cell culture was carried out in a carbon dioxide-containing atmosphere in an incubator maintained at 37°C according to a conventional method [cf. […] The culture supernatant (5×10⁶ TCID₅₀/ml) obtained by subjecting CEM cells to HIV (LAV 1) infection and stored at -70°C was used as the HIV source.
The medium for cell culture (10 ml) placed in a plastic culture flask (25 cm²) was inoculated with CEM cells at a cell density of 2.5×10⁵ cells/ml. After 3 days of incubation, the culture was transferred to a 15-ml centrifuge tube and subjected to centrifugation at 1,000 revolutions per minute for 5 minutes for sedimentation of cells and removal of the culture medium.
The stock viral suspension was added to the host cells thus prepared to an MOI of 0.05 and the mixture was maintained at 37°C for 90 minutes with stirring at 30-minute intervals for viral adsorption. The medium was added to HIV-infected cells to a cell density of 5.0×10⁵ cells/ml to give an HIV-infected cell suspension.
A mixture (1.0 ml) of the three constituents mentioned below was added to each well of a 24-well plastic culture plate and the test substance final concentration was adjusted to 10 mcg/ml, 5 mcg/ml, 2.5 mcg/ml or 1 mcg/ml. The "no addition" wells (0 mcg/ml) served as controls.
After 4 days of incubation following viral infection, the cells in each well on the 24-well culture plate were suspended uniformly by pipetting and a 0.5-ml portion of the suspension was separated. A 2.0-ml portion of test substance-free fresh medium was added to the remaining 0.5-ml portion of the cell suspension, followed by incubation.
Seven days after viral infection, pipetting was performed to give a uniform cell suspension in each well and a 0.5-ml portion of the suspension was separated.
Incubation was continued and, 10 days after viral infection, a uniform cell suspension was produced in the same manner in each well and a 1.5-ml portion thereof was separated. A fresh 2.0-ml portion of the medium free of (or containing) the test substance was added to the well, followed by further incubation.
Fifteen days after viral infection, the cells in each well were suspended uniformly in the same manner in the medium and a 2.0-ml portion of the suspension was separated. A fresh 2.0-ml portion of the medium free of (or containing) the test substance was added to the remaining 0.5 ml of the cell suspension and incubation was continued.
Medium exchange was performed in the same manner 20 days and 25 days after viral infection.
The cell suspensions collected 4 days, 7 days, 10 days, 20 days and 30 days after viral infection were tested for viable cell count and viable cell percentage by trypan blue staining. At the same time, viral antigen-positive cell percentage determination was carried out by immunofluorescence using an anti-HIV antiserum isolated from a healthy carrier of HIV.
The numerical values given each is the mean for the respective two wells on the culture plate. The viable cell count is the total cell count minus the count of dead cells stained with trypan blue. The viable cell percentage is the percentage of viable cells among all the cells including dead cells. The viral antigen-positive cell percentage is the percentage of cells indicating antigen expression as found among all the cells including dead cells.

in vivo = settings: mouse, po
[1] = continuous addition, after 4 days
[2] = continuous addition, after 7 days
[3] = continuous addition, after 10 days
[4] = continuous addition, after 20 days
[5] = continuous addition, after 30 days

SMILES: CC1COc2c(N3CCN(C)CC3)c(F)cc3c(=O)c(C(=O)O)cn1c23 (racemic) [OFLX, (±)-9-fluoro-3-methyl-10-(4-methyl-1-piperazinyl)-7-oxo-2,3-dihydro-7H-pyrido[1,2,3-de][1,4]benzoxazine-6-carboxylic acid]
- Viable cell count (HIV (LAV 1); 4-day addition, after 7 days): 63 × 10⁴ cells/ml
- Viral antigen-positive cell percentage (HIV (LAV 1); 4-day addition, after 7 days): 63%
- Viable cell count (HIV (LAV 1); 4-day addition, after 10 days): 280 × 10⁴ cells/ml
- Viral antigen-positive cell percentage (HIV (LAV 1); 4-day addition, after 10 days): 40%
- Viable cell count (HIV (LAV 1); 4-day addition, after 20 days): 310 × 10⁴ cells/ml
- Viral antigen-positive cell percentage (HIV (LAV 1); 4-day addition, after 20 days): 14%
- Viable cell count (HIV (LAV 1); 4-day addition, after 30 days): 320 × 10⁴ cells/ml
- Viral antigen-positive cell percentage (HIV (LAV 1); 4-day addition, after 30 days): 3%
- Viable cell count (HIV (LAV 1); [1]): 280 × 10⁴ cells/ml
- Viral antigen-positive cell percentage (HIV (LAV 1); [1]): 78%
- Viable cell count (HIV (LAV 1); [2]): 55 × 10⁴ cells/ml
- Viral antigen-positive cell percentage (HIV (LAV 1); [2]): 72%
- Viable cell count (HIV (LAV 1); [3]): 130 × 10⁴ cells/ml
- Viral antigen-positive cell percentage (HIV (LAV 1); [3]): 43%
- Viable cell count (HIV (LAV 1); [4]): 290 × 10⁴ cells/ml
- Viral antigen-positive cell percentage (HIV (LAV 1); [4]): 9%
- Viable cell count (HIV (LAV 1); [5]): 390 × 10⁴ cells/ml
- Viral antigen-positive cell percentage (HIV (LAV 1); [5]): 6%
- viability at 1 µg/mL (HIV (LAV 1); 96 h, read-out: Viable cell percentage, 1 mcg/ml, 4-day addition, after 4 days): 96%
- viability at 1 µg/mL (HIV (LAV 1); 96 h, read-out: Viable cell percentage, 1 mcg/ml, continuous addition, after 4 days): 94%
- viability at 2.5 µg/mL (HIV (LAV 1); 96 h, read-out: Viable cell percentage, 2.5 mcg/ml, 4-day addition, after 4 days): 96%
- viability at 2.5 µg/mL (HIV (LAV 1); 96 h, read-out: Viable cell percentage, 2.5 mcg/ml, continuous addition, after 4 days): 94%
- viability at 5 µg/mL (HIV (LAV 1); 96 h, read-out: Viable cell percentage, 5 mcg/ml, 4-day addition, after 4 days): 93%
- viability at 5 µg/mL (HIV (LAV 1); 96 h, read-out: Viable cell percentage, 5 mcg/ml, continuous addition, after 4 days): 98%
- viability at 10 µg/mL (HIV (LAV 1); 96 h, read-out: Viable cell percentage, 10 mcg/ml, 4-day addition, after 4 days): 94%
- viability at 10 µg/mL (HIV (LAV 1); 96 h, read-out: Viable cell percentage, 10 mcg/ml, continuous addition, after 4 days): 95%
- viability at 1 µg/mL (HIV (LAV 1); 168 h, read-out: Viable cell percentage, 1 mcg/ml, continuous addition, after 7 days): 55%
- viability at 2.5 µg/mL (HIV (LAV 1); 168 h, read-out: Viable cell percentage, 2.5 mcg/ml, continuous addition, after 7 days): 64%
- viability at 5 µg/mL (HIV (LAV 1); 168 h, read-out: Viable cell percentage, 5 mcg/ml, continuous addition, after 7 days): 64%
- viability at 10 µg/mL (HIV (LAV 1); 168 h, read-out: Viable cell percentage, 10 mcg/ml, continuous addition, after 7 days): 66%
- viability at 1 µg/mL (HIV (LAV 1); 240 h, read-out: Viable cell percentage, 1 mcg/ml, continuous addition, after 10 days): 42%
- viability at 2.5 µg/mL (HIV (LAV 1); 240 h, read-out: Viable cell percentage, 2.5 mcg/ml, continuous addition, after 10 days): 81%
- viability at 5 µg/mL (HIV (LAV 1); 240 h, read-out: Viable cell percentage, 5 mcg/ml, continuous addition, after 10 days): 87%
- viability at 10 µg/mL (HIV (LAV 1); 240 h, read-out: Viable cell percentage, 10 mcg/ml, continuous addition, after 10 days): 87%
- viability at 1 µg/mL (HIV (LAV 1); 480 h, read-out: Viable cell percentage, 1 mcg/ml, continuous addition, after 20 days): 75%
- viability at 2.5 µg/mL (HIV (LAV 1); 480 h, read-out: Viable cell percentage, 2.5 mcg/ml, continuous addition, after 20 days): 94%
- viability at 5 µg/mL (HIV (LAV 1); 480 h, read-out: Viable cell percentage, 5 mcg/ml, continuous addition, after 20 days): 95%
- viability at 10 µg/mL (HIV (LAV 1); 480 h, read-out: Viable cell percentage, 10 mcg/ml, continuous addition, after 20 days): 92%
- viability at 1 µg/mL (HIV (LAV 1); read-out: Viable cell percentage, 1 mcg/ml, 4-day addition, after 7 days): 53%
- viability at 1 µg/mL (HIV (LAV 1); read-out: Viable cell percentage, 1 mcg/ml, 4-day addition, after 10 days): 21%
- viability at 1 µg/mL (HIV (LAV 1); read-out: Viable cell percentage, 1 mcg/ml, 4-day addition, after 20 days): 87%
- viability at 1 µg/mL (HIV (LAV 1); read-out: Viable cell percentage, 1 mcg/ml, 4-day addition, after 30 days): 37%
- viability at 1 µg/mL (HIV (LAV 1); read-out: Viable cell percentage, 1 mcg/ml, continuous addition, after 30 days): 33%
- viability at 2.5 µg/mL (HIV (LAV 1); read-out: Viable cell percentage, 2.5 mcg/ml, 4-day addition, after 7 days): 67%
- viability at 2.5 µg/mL (HIV (LAV 1); read-out: Viable cell percentage, 2.5 mcg/ml, 4-day addition, after 10 days): 67%
- viability at 2.5 µg/mL (HIV (LAV 1); read-out: Viable cell percentage, 2.5 mcg/ml, 4-day addition, after 20 days): 95%
- viability at 2.5 µg/mL (HIV (LAV 1); read-out: Viable cell percentage, 2.5 mcg/ml, 4-day addition, after 30 days): 97%
- viability at 2.5 µg/mL (HIV (LAV 1); read-out: Viable cell percentage, 2.5 mcg/ml, continuous addition, after 30 days): 97%
- viability at 5 µg/mL (HIV (LAV 1); read-out: Viable cell percentage, 5 mcg/ml, 4-day addition, after 7 days): 59%
- viability at 5 µg/mL (HIV (LAV 1); read-out: Viable cell percentage, 5 mcg/ml, 4-day addition, after 10 days): 77%
- viability at 5 µg/mL (HIV (LAV 1); read-out: Viable cell percentage, 5 mcg/ml, 4-day addition, after 20 days): 86%
- viability at 5 µg/mL (HIV (LAV 1); read-out: Viable cell percentage, 5 mcg/ml, 4-day addition, after 30 days): 97%
- viability at 5 µg/mL (HIV (LAV 1); read-out: Viable cell percentage, 5 mcg/ml, continuous addition, after 30 days): 94%
- viability at 10 µg/mL (HIV (LAV 1); read-out: Viable cell percentage, 10 mcg/ml, 4-day addition, after 7 days): 73%
- viability at 10 µg/mL (HIV (LAV 1); read-out: Viable cell percentage, 10 mcg/ml, 4-day addition, after 10 days): 85%
- viability at 10 µg/mL (HIV (LAV 1); read-out: Viable cell percentage, 10 mcg/ml, 4-day addition, after 20 days): 92%
- viability at 10 µg/mL (HIV (LAV 1); read-out: Viable cell percentage, 10 mcg/ml, 4-day addition, after 30 days): 95%
- viability at 10 µg/mL (HIV (LAV 1); read-out: Viable cell percentage, 10 mcg/ml, continuous addition, after 30 days): 95%
- LD50 (in vivo): 5450 mg/kg
